The values below come from patent publication US11266717B2, “Diagnosis, prevention, and/or treatment of autoimmune diseases” (priority 2016, dated 2022).

Non-standard residues stand in square brackets, D forms with d. Residues, ends and D or L forms follow the SMILES beside them. *: point of attachment. Dolaproine = CO[C@@H]([C@@H]1CCCN1)[C@@H](C)C(=O)O; Dil = CC[C@H](C)[C@H](NC)[C@@H](CC(=O)O)OC; X1 = C[C@@H](N*)[C@@H](O)c1ccccc1; NMeV = CN[C@H](C(=O)O)C(C)C

The subject of assay [1] is PLA2R-epitope specific memory B cells isolated from PMN patients. Description: Elimination of PLA2R-epitope specific memory B cells: 24 h preincubation, then PLA2R-epitope-FITC staining. The format is cell-based, human. Conditions: preincubation 24 h; then PLA2R-epitope-FITC 1 h at 4° C.; FIG. 25. Here is the method: (§1) In some embodiments, the efficacy of an EDC may be tested in vitro using patient samples prior to administering the EDC to patients. For example, the efficacy of an EDC is tested on isolated B cells from patient peripheral blood mononuclear cells (PBMCs) (FIG. 25; Example 6, and FIG. 30; Example 9). An EDC comprising a fluorophore (e.g., FITC) is used detect the presence of autoantibody-producing B cells in patient samples (left panels in FIG. 25 (MN patient samples) and FIG. 30 (Pemphigus vulgaris patient samples) prior to exposing the samples to an EDC comprising a cytotoxic drug. The patient samples are then treated with an EDC comprising a cytotoxic drug (e.g., MMAE). The EDC comprising the fluorophore is then used determine the efficacy of the EDC comprising a cytotoxic drug of autoantibody-producing B cells in patient samples (middle panels in FIG. 25 (MN patient samples) and FIG. 30 (Pemphigus vulgaris patient samples)).
The efficacy of the PLA2R-epitope-MMAE on eliminating the PLA2R-epitope specific memory B cells isolated from PMN patients was assessed. MMAE is a potent cytotoxic agent that blocks tubulin polymerization causing cell death. MMAE has been used to develop an antibody-drug conjugate, Brentuximab vedotin (trade name Adcetris) for lymphoma treatment, and was approved by FDA in 2011. […]

The test system of assay [2] is Dsg1 and Dsg3-epitope specific memory B cells isolated from mucocutaneous PV patients. Nature of the assay: Elimination of Dsg1 and Dsg3-epitope specific memory B cells: 24 h preincubation, then Dsg1 and Dsg3-epitope-FITC staining. It is filed as cell-based, human. The following applies: preincubation 24 h; then Dsg1 and Dsg3-epitope-FITC 1 h at 4° C.; FIG. 30. As for the experimental part:
as §1
The efficacy of the Dsg1 and Dsg3 epitope conjugated to MMAE to eliminate Dsg1 and Dsg3-epitope specific memory B cells, respectively, isolated from the mucocutaneous PV patients was assessed. Total B cells isolated from patient peripheral blood were cultured overnight in RPMI medium and then split equally into two wells on a 12 well cell culture plate (2 ml/per well). […]

Assay [3] deals with anti-PLA2R autoantibodies. Nature of the assay: Western blot of PLA2R-epitope proteins probed with patient serum containing anti-PLA2R autoantibodies. The format is binding, human. Conditions: SDS-PAGE under non-reducing condition. The source says: The construct was then expressed in the HEK293 cells and the epitope protein was purified using nickel and gel filtration columns followed with TEV cleavage to remove the His-tag. The protein was then coupled with a fluorescent agent (eg. FITC) or a cytotoxic reagent (eg. Monomethyl auristatin E (MMAE)).
In a separate experiment (FIG. 23; bottom right), equal amount of epitope, FITC conjugated epitope and MMAE conjugated epitope proteins were resolved on a SDS-PAGE under the non-reducing condition, transferred to a membrane, and probed by a patient serum containing anti-PLA2R autoantibodies. The unconjugated and the conjugated PLA2R-epitope proteins were resolved on a 4-20% SDS-PAGE under the non-reducing condition and probed with a patient serum containing anti-PLA2R autoantibodies (FIG. 23, bottom right).
The construct was then expressed in the HEK293 cells and the epitope protein was purified using nickel and gel filtration columns followed with TEV cleavage to remove the His-tag. The protein was then coupled with a fluorescent agent (eg. FITC) or a cytotoxic reagent (eg. Monomethyl auristatin E (MMAE)) (FIG. 23).
A general note: A western blot detects proteins with antibodies after separation by electrophoresis.

Take `CC[C@H](C)[C@@H]([C@@H](CC(=O)N1CCC[C@H]1[C@H](OC)[C@@H](C)C(=O)N[C@H](C)[C@@H](O)c1ccccc1)OC)N(C)C(=O)[C@@H](NC(=O)[C@@H](NC)C(C)C)C(C)C` [MMAE, Monomethyl auristatin E, reference compound] (H-[NMeV]V[Dil][Dolaproine]-X1): the “staining of B cells with PLA2R-epitope-FITC after preincubation (elimination of PLA2R-epitope specific memory B cells)” value in assay [1] is “a number of B cells being stained”. The “staining of B cells with Dsg1 and Dsg3-epitope-FITC after preincubation (elimination of Dsg1 and Dsg3-epitope specific memory B cells)” value in assay [2] was “a number of B cells being stained”.
For the compound “PLA2R-epitope: PLA2R CysR, FnII and CTLD1 domains with free cysteine engineered into the C-terminal tail, expressed in HEK293 cells, about 37 kDa”, the “reaction/binding with anti-PLA2R autoantibodies (Western blot)” value in assay [3] is “strongly reacted”; in assay [3] (listed as modified PLA2R-epitope) it was “strongly reacted”; in assay [3] (listed as unconjugated PLA2R-epitope), “strongly”.
